Test results: patent US8192962B2, “Processes for detecting toxic substances” (Daikin Industries, Ltd., priority 2001, dated 2012)

Tested on: Genes belonging to other category
Assay: DNA chip mRNA expression in yeast, genes belonging to other category (Table 9)
Assay type: cell-based, Saccharomyces cerevisiae S288C
Outline: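 Chemical exposure: 2 h, log-phase S. cerevisiae S288C, YPD, 25° C., dose set to inhibit growth without death. Profiling: mRNA labeled by reverse transcription with Cy3- or Cy5-dUTP, hybridized to whole-genome array. Output: fluorescence ratio against untreated culture.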

S=C([S-])NCCNC(=S)[S-].[Zn+2] [(11), zinc N,N′-ethylenebis(dithiocarbamate)]
The level of expressed mRNA in the presence of chemical substance/The level of expressed mRNA in the absence of chemical substance (yeast gene YDR427W): 1.2 | The level of expressed mRNA in the presence of chemical substance/The level of expressed mRNA in the absence of chemical substance (yeast gene YDR432W): 0.6 | The level of expressed mRNA in the presence of chemical substance/The level of expressed mRNA in the absence of chemical substance (yeast gene YDR481C): 1.2 | The level of expressed mRNA in the presence of chemical substance/The level of expressed mRNA in the absence of chemical substance (yeast gene YDR488C): 0.4 | The level of expressed mRNA in the presence of chemical substance/The level of expressed mRNA in the absence of chemical substance (yeast gene YDR510W): 1.6 | The level of expressed mRNA in the presence of chemical substance/The level of expressed mRNA in the absence of chemical substance (yeast gene YEL042W): 1.6 | The level of expressed mRNA in the presence of chemical substance/The level of expressed mRNA in the absence of chemical substance (yeast gene YEL066W): 1.9 | The level of expressed mRNA in the presence of chemical substance/The level of expressed mRNA in the absence of chemical substance (yeast gene YER009W): 1.4 | The level of expressed mRNA in the presence of chemical substance/The level of expressed mRNA in the absence of chemical substance (yeast gene YER025W): 1.2 | The level of expressed mRNA in the presence of chemical substance/The level of expressed mRNA in the absence of chemical substance (yeast gene YER039C): 1.2 | The level of expressed mRNA in the presence of chemical substance/The level of expressed mRNA in the absence of chemical substance (yeast gene YER076C): 0.7 | The level of expressed mRNA in the presence of chemical substance/The level of expressed mRNA in the absence of chemical substance (yeast gene YER078C): 1.3 | The level of expressed mRNA in the presence of chemical substance/The level of expressed mRNA in the absence of chemical substance (yeast gene YER107C): 0.7 | The level of expressed mRNA in the presence of chemical substance/The level of expressed mRNA in the absence of chemical substance (yeast gene YER130C): 0.9 | The level of expressed mRNA in the presence of chemical substance/The level of expressed mRNA in the absence of chemical substance (yeast gene YER177W): 1.9 | The level of expressed mRNA in the presence of chemical substance/The level of expressed mRNA in the absence of chemical substance (yeast gene YFL022C): 1.2 | The level of expressed mRNA in the presence of chemical substance/The level of expressed mRNA in the absence of chemical substance (yeast gene YFL028C): 1.3 | The level of expressed mRNA in the presence of chemical substance/The level of expressed mRNA in the absence of chemical substance (yeast gene YFL038C): 1.7 | The level of expressed mRNA in the presence of chemical substance/The level of expressed mRNA in the absence of chemical substance (yeast gene YFL043C): 1.1 | The level of expressed mRNA in the presence of chemical substance/The level of expressed mRNA in the absence of chemical substance (yeast gene YFR006W): 1.2 | The level of expressed mRNA in the presence of chemical substance/The level of expressed mRNA in the absence of chemical substance (yeast gene YFR050C): 1.4 | The level of expressed mRNA in the presence of chemical substance/The level of expressed mRNA in the absence of chemical substance (yeast gene YFR051C): 1.3 | The level of expressed mRNA in the presence of chemical substance/The level of expressed mRNA in the absence of chemical substance (yeast gene YGL094C): 0.6 | The level of expressed mRNA in the presence of chemical substance/The level of expressed mRNA in the absence of chemical substance (yeast gene YGL150C): 0.4 | The level of expressed mRNA in the presence of chemical substance/The level of expressed mRNA in the absence of chemical substance (yeast gene YGL158W): 0.2 | The level of expressed mRNA in the presence of chemical substance/The level of expressed mRNA in the absence of chemical substance (yeast gene YGL207W): 0.7 | The level of expressed mRNA in the presence of chemical substance/The level of expressed mRNA in the absence of chemical substance (yeast gene YGL229C): 1.1 | The level of expressed mRNA in the presence of chemical substance/The level of expressed mRNA in the absence of chemical substance (yeast gene YGR136W): 1.3 | The level of expressed mRNA in the presence of chemical substance/The level of expressed mRNA in the absence of chemical substance (yeast gene YGR189C): 1.5 | The level of expressed mRNA in the presence of chemical substance/The level of expressed mRNA in the absence of chemical substance (yeast gene YGR213C): 1.6 | The level of expressed mRNA in the presence of chemical substance/The level of expressed mRNA in the absence of chemical substance (yeast gene YGR232W): 1.3 | The level of expressed mRNA in the presence of chemical substance/The level of expressed mRNA in the absence of chemical substance (yeast gene YGR239C): 1.4 | The level of expressed mRNA in the presence of chemical substance/The level of expressed mRNA in the absence of chemical substance (yeast gene YGR253C): 2.4 | The level of expressed mRNA in the presence of chemical substance/The level of expressed mRNA in the absence of chemical substance (yeast gene YGR257C): 1.2 | The level of expressed mRNA in the presence of chemical substance/The level of expressed mRNA in the absence of chemical substance (yeast gene YHR004C): 0.8 | The level of expressed mRNA in the presence of chemical substance/The level of expressed mRNA in the absence of chemical substance (yeast gene YHR071W): 1.8 | The level of expressed mRNA in the presence of chemical substance/The level of expressed mRNA in the absence of chemical substance (yeast gene YHR139C): 3.5 | The level of expressed mRNA in the presence of chemical substance/The level of expressed mRNA in the absence of chemical substance (yeast gene YHR142W): 1.1 | The level of expressed mRNA in the presence of chemical substance/The level of expressed mRNA in the absence of chemical substance (yeast gene YHR166C): 0.6 | The level of expressed mRNA in the presence of chemical substance/The level of expressed mRNA in the absence of chemical substance (yeast gene YHR185C): 0.7 | The level of expressed mRNA in the presence of chemical substance/The level of expressed mRNA in the absence of chemical substance (yeast gene YHR195W): 1.4 | The level of expressed mRNA in the presence of chemical substance/The level of expressed mRNA in the absence of chemical substance (yeast gene YHR205W): 0.9 | The level of expressed mRNA in the presence of chemical substance/The level of expressed mRNA in the absence of chemical substance (yeast gene YIL018W): 1.2 | The level of expressed mRNA in the presence of chemical substance/The level of expressed mRNA in the absence of chemical substance (yeast gene YIL123W): 1.2 | The level of expressed mRNA in the presence of chemical substance/The level of expressed mRNA in the absence of chemical substance (yeast gene YIL140W): 0.9 | The level of expressed mRNA in the presence of chemical substance/The level of expressed mRNA in the absence of chemical substance (yeast gene YJL073W): 0.5 | The level of expressed mRNA in the presence of chemical substance/The level of expressed mRNA in the absence of chemical substance (yeast gene YJL089W): 0.6 | The level of expressed mRNA in the presence of chemical substance/The level of expressed mRNA in the absence of chemical substance (yeast gene YJL113W): 1.2 | The level of expressed mRNA in the presence of chemical substance/The level of expressed mRNA in the absence of chemical substance (yeast gene YJL116C): 2.9 | The level of expressed mRNA in the presence of chemical substance/The level of expressed mRNA in the absence of chemical substance (yeast gene YJL138C): 1.2
